Results reported in EP0035856A2, “Pharmaceutical and dietary compositions” (EFAMOL LIMITED, priority 1980, dated 1981).
Like-named read-outs stand apart in the source and are kept apart here.

What was measured:
[1] = system: rat mesenteric vascular bed; settings: cited from earlier work; for inhibitory action on noradrenaline responses with intact PG synthesis versus PG synthesis blocked: PG synthesis blocked by indomethacin or by aspirin
[2] = system: Kidney slices (rat); test: Conversion of 14C-labelled DGLA and AA to PGEs in rat kidney slices; format: cell-based; settings: 5 μg/ml drug, percentage of control incubation with drug vehicle alone, 10% variation is a real change
Experimental: The conversions of the precursors to the respective PGEs and TXBs in platelets and to the PGEs in kidney slices were investigated. The results are shown in the following tables and are expressed as percentages of the results obtained during control incubations when drug vehicle alone was added. A 10% variation is a reliable indication of real change.
The detailed technique with platelets is given below by way of example. That with kidney slices was essentially similar.
(1-^14C) arachidonic acid and (1-^14C) dihomo-y-linolenic acid was used, diluted with hexane to specific activities of about 2 or 5 µCi/µmol. One day expired (2 days old) human platelets were obtained and used within 48 hours of expiration. One unit was centrifuged at lOOOg for 15 minutes and the supernatant drawn off. The platelet pellet was resuspended in Tris-NaCl-EDTA buffer, made up of 0.15 M NaCl, 0.15 M Tris HC1 at pH 7.4 and 0.077 M NaEDTA (90:8:2 v/v/v). The platelets were recentrifuged, the supernatant removed and the pellet resuspended in Krebs-Henseleit buffer (without calcium) at oH 7.4. The washed platelet suspension contained about 1-2% red blood cells. All glassware used in the preparation of the platelets was siliconized.
Four equal sized 1 ml aliquots of the platelet suspension, containing 10^9 platelets/ml were incubated with e.g. 0.5 µCi 14 C-DGLA for five minutes. At the beginning of the incubation the drug under test was added to the suspensions. The reaction was stopped after five minutes by addition of 1/10 volume of 10% formic acid. The suspension was then extracted three times with ethyl acetate and the fractions pooled and dried under vacuum. The extract was then taken up with 5 ml chloroform/methanol (2/1, v/v). Recovery of radioactive material in the extract was checked by taking 50pl of the chloroform/methanol and counting by liquid scintillation. Recovery was in the range 80-95% in most experiments.
The chloroform/methanol extract was then reduced in volume to 1 ml under dry prepurified nitrogen. Thin layer chromatography was carried out on […] precoated, prescored silica gel G Uniplates (Analtech). Plates were activated by heating to 100°C for 1 hour immediately prior to use. The solvent system was chloroform:methanol: acetic acid:water (90:8:1:0.8). Reference compounds (PG's El and Fla, and thromboxane Bl) were run at the same time and visualized by phosphomolybdic acid spray followed by brief heating. The bands on the plates corresponding to the reference PGE 1,PFG la and TXB 1 were scraped off and eluted with 20 ml acetone. Each elution was then evaporated to dryness and counted by liquid scintillation (Beckman 100 LS counter). […]

[3] = system: Platelets (human); test: Conversion of 14C-labelled DGLA and AA to PGEs and TXBs in human platelets; format: cell-based; settings: Platelet, 5 μg/ml drug, percentage of control incubation with drug vehicle alone
Experimental: The method is given in detail later herein but briefly human platelets are incubated with radioactive DGLA or arachidonic acid. The PGs produced during incubation are extracted by conventional means and separated by thin layer chromatography, and the amount of radioactivity appearing in each PG or related substance is counted. PGE 1, PGF la and thromboxane Bl from DGLA, and PGE 2, PFG 2a and thromboxane B2 from AA are estimated.
The conversions of the precursors to the respective PGEs and TXBs in platelets and to the PGEs in kidney slices were investigated. […] A 10% variation is a reliable indication of real change.
The chloroform/methanol extract was then reduced in volume to 1 ml under dry prepurified nitrogen. Thin layer chromatography was carried out on 500 µg precoated, prescored silica gel G Uniplates (Analtech). Plates were activated by heating to 100°C for 1 hour immediately prior to use. The solvent system was chloroform:methanol: acetic acid:water (90:8:1:0.8). Reference compounds (PG's El and Fla, and thromboxane Bl) were run at the same time and visualized by phosphomolybdic acid spray followed by brief heating. […] Each elution was then evaporated to dryness and counted by liquid scintillation (Beckman 100 LS counter). […]

[4] = read-out: PGE 1 formed from precursor acid DGLA
[5] = read-out: PGE 2 formed from precursor acid AA

SMILES	effect on responses to noradrenaline [1]	inhibitory action on noradrenaline responses with intact PG synthesis versus PG synthesis blocked [1]	other results
CCCCC/C=C\C/C=C\C/C=C\CCCCCCC(=O)O [DGLA, dihomo-y-linolenic acid]	inhibit responses to noradrenaline		
CCCCC/C=C\C/C=C\C/C=C\C/C=C\CCCC(=O)O [AA, arachidonic acid]	increase noradrenaline responses		
CCN(CC)CCCC(C)Nc1c2ccc(Cl)cc2nc2ccc(OC)cc12 (centres unmarked) [quinacrine]		share this effect of chloroquine	
C=C[C@H]1C[N@@]2CC[C@H]1C[C@H]2[C@H](O)c1ccnc2ccc(OC)cc12 [quinine]		share this effect of chloroquine	
CCN(CC)CCCC(C)Nc1ccnc2cc(Cl)ccc12 (centres unmarked) [chloroquine]	inhibits responses to noradrenaline	more potent when endogenous prostaglandin synthesis is intact	activity at 5 µg/mL [2, 4]: 129%; activity at 5 µg/mL [2, 5]: 101%; activity at 5 µg/mL [3, 4]: 132%; activity at 5 µg/mL [3, 5]: 98%; activity at 5 µg/mL ([3]; read-out: TXB 1 formed from precursor acid DGLA): 128%; activity at 5 µg/mL ([3]; read-out: TXB 2 formed from precursor acid AA): 97%
C=C[C@H]1C[N@@]2CC[C@H]1C[C@@H]2[C@@H](O)c1ccnc2ccc(OC)cc12 [quinidine]		share this effect of chloroquine	
CCN(CC)CCOC(=O)c1ccc(N)cc1 [procaine]		share this effect of chloroquine	
CC(=O)S[C@@H]1CC2=CC(=O)CC[C@]2(C)[C@H]2CC[C@@]3(C)[C@@H](CC[C@@]34CCC(=O)O4)[C@H]12 [spironolactone]			activity at 5 µg/mL [2, 4]: 143%; activity at 5 µg/mL [2, 5]: 67%
CCCCC[C@H](O)/C=C/[C@H]1[C@H](O)CC(=O)[C@@H]1CCCCCCC(=O)O [PGE 1]	inhibit responses to noradrenaline		
